The values below come from patent US11674967B2, “Method of identifying potential inhibitors of APO TNFα trimers” (UCB BIOPHARMA SRL, priority 2015, dated 2023).

For test [1], the target named is T1, TNFα (Homo sapiens, UniProt P01375). Nature of the test: Monomer exchange mass spectrometry, compound pre-incubated with h-TNFα. Format: binding. Also on record: made in house. To be noted: 1:1 complex mixed with m-TNFα, 18 hours. The method, then: Human and mouse homotrimers of TNFα (H3 and M3 respectively) were incubated together and aliquots of the solution monitored by mass spectrometry appearance of the cross species heterotrimers. The mass spectrometric analysis confirmed that monomer exchange between native TNFα trimers was able to occur in solution. The exchange rate was slow and was monitored over a course of 4 hours before full equilibration was achieved (data not shown). The mechanism is unknown, although is it unlikely to involve formation of the dimeric forms as none of these were observed. Monomer exchange is likely to be occurring between pure human and mouse trimers, the mixing of mouse and human trimers simply makes this exchange visible by mass spectrometry.
T1 sequence (P01375 77-233 limits assumed): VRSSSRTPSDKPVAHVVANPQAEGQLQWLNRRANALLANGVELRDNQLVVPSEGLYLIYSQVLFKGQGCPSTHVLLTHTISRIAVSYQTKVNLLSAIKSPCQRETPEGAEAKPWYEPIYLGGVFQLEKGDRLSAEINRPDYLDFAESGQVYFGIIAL
In a second series of experiments an excess of the compound of formula (3) was incubated with Human TNFα, the excess compound of formula (3) was then removed. Mass Spectral analysis confirmed that a 1:1 complex had been formed between the compound of formula (3) and h-TNFα. Mouse TNFα was now added to this sample which was then subjected to mass spectral analysis over a number of hours. After 18 hours there was no observed change in the composition of the sample. […] In addition, there was no evidence of formation of the M3L species and no evidence of formation of the unligated H3 species. […]

For test [2], the target named is T2, Mouse TNFα (Mus musculus, UniProt P06804).
T2 construct: made in house
T2 sequence (P06804 80-235 limits assumed): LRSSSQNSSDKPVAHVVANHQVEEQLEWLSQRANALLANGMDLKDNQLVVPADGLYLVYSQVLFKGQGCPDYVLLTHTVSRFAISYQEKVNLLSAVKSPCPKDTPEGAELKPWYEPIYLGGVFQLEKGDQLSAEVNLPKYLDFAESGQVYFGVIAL
Kind of test: Monomer exchange mass spectrometry, compound pre-incubated with m-TNFα. Format: binding. As to conditions: 1:1 complex mixed with h-TNFα. The method, then:
The experiment was then repeated in reverse. Excess compound of formula 3 was incubated with Mouse TNFα, the excess compound of formula (3) was then removed. Mass Spectral analysis confirmed that a 1:1 complex had been formed between the compound of formula (3) and m-TNFα. Human TNFα was now added to this sample which was then subjected to mass spectral analysis over a number of hours. […] In addition there was evidence of formation of the ligated human homotrimer (H3L), the unligated mouse homotrimer (M3) and for unbound compound of formula (3) (L). […] Once this complex (M3L) has dissociated, monomer subunit exchange between the H3 and M3 species proceeds and the liberated ligand is then able to form complexes with all 4 trimer species present in solution.

In test [3] the test system is hTNFα-induced neutrophil recruitment. Nature of the test: Neutrophil recruitment in mice, compound pre-mixed with hTNFα, i.p. Format: in vivo, Balb/c mice. To be noted: for neutrophil recruitment vs TNFα in the absence of the compound: sample 1, ratio compound:TNFα 0.1:1, i.p. The method, then:
In separate studies, compounds of formula (3) and formula (15) were mixed with 20 μM solutions of TNFα dissolved in phosphate buffered saline (PBS) to a concentration of 2 μM, 20 μM and 200 μM. The ratio of each compound to TNFα was, therefore, 0.1:1 (sample 1), 1:1 (sample 2) and 10:1 (sample 3). […] This process separates protein bound compound and free compound. A control sample containing PBS only was processed in the same way to provide a vehicle control for the study. The concentration of eluted protein was determined using a Nanodrop (ND-1000). The TNFα: compound complexes were diluted in PBS to a concentration for injection of 0.03 μg/kg
For the study, typically, each group contained 10 male Balb/c mice (Charles River) apart from an anti-human TNFα antibody positive control, which used a set of 5 mice.
Compound only mice were also included in the study to assess the effect of compound on neutrophil recruitment.
All mice were killed by cervical dislocation two hours post-injection of hTNFα (t=2 h) and the peritoneal cavity was lavaged with 3 mL of FACS buffer (500 mL PBS containing 2 g bovine serum albumin, 6 mL HEPES buffer and […]). Lavage fluid was aspirated and neutrophil numbers were assessed by staining cells with anti-Gr1 PE and anti-CD45 FITC by FACS as detailed below.
100 μL of lavage fluid from each sample was aliquoted into FACS tubes. A FACS cocktail was made up using anti-GR-1 PE (BD cat #553128 Lot #75542) at 1 in 39 dilution and anti-CD45 FITC (BD cat #553080 Lot #80807) at 1 in 19 dilution in FACS buffer. Fc block (BD Cat #553142 Lot #87810) was prepared 1 in 10 with FACS buffer and 10 μL added to each sample 5 minutes before adding the antibody cocktail. […] Samples were then left for 20 mins on ice. 1 mL of FACS Lyse solution (BD Cat #349202 Lot #29076, diluted 1:10 in dH2O) was added to each tube, mixed and left at room temperature for 5 minutes. 1 mL of FACS Buffer was then added to each tube and centrifuged at 400 g for 5 minutes. The FACS buffer was then carefully poured off and the tip of the tube dabbed on absorbent paper to leave the tube completely dry. Then […] of 1 in 10 Reference Bead solution (Sigma cat #P2477 Lot #116K1612) diluted in FACS buffer was added to each tube.
Samples were analysed using FACScalibur II and FloJo software.

Test [4] has as its target T1, TNFα. Nature of the test: Fluorescence probed thermal denaturation assay (Thermofluor) of TNFα. Format: binding. To be noted: TNFα + 5% DMSO + compound. On the procedure:
A fluorescence probed thermal denaturation assay was performed to assess the effect of the compounds on the thermal stability of TNFα as a measure of compound binding. The reaction mix contained 5 μl of 30×SYPRO® Orange dye (Invitrogen) and 5 μl of TNFα (at 1.0 mg/ml), 37.5 μl PBS, pH 7.4 and 2.5 μl of compound (at 2 mM in DMSO). 10 μl of the mix was dispensed in quadruplicate into a 384 PCR optical well plate and was run on a 7900HT Fast Real-Time PCR System […]. PCR
System heating device was set at 20° C. to 99° C. with a ramp rate of 1.1° C./min; fluorescence changes in the wells were monitored by a Charge-coupled device (CCD). The fluorescence intensity increase was plotted as a function of temperature and the Tm calculated as the midpoint of this denaturation curve (determined as the point of inflection) (Table 1).
Thermofluor measures the change of melting temperature (Tm) of TNFα due to compound either stabilising or disrupting the protein.
Background: In DSF a fluorescence change marks the thermal transition of the protein.

The mark [5] stands for this setting: sample 2, ratio compound:TNFα 1:1, i.p.
[6] abbreviates: sample 3, ratio compound:TNFα 10:1, i.p.

Structures are written as SMILES.

As to `Cc1ccc(C)c(Cn2c(C(O)c3ccncc3)nc3ccccc32)c1` (centres unmarked) [Compound 3], the “off-rate when complexed with h-TNFα” value in test [1] is “no measurable off-rate”. Also, the “off-rate when complexed with m-TNFα” value in test [2] is listed as “measurable off-rate”. In addition, the “neutrophil recruitment vs TNFα in the absence of the compound” value in test [3] is recorded as “not significantly different”. Also, in test [3] (setting [5]), the “inhibition of neutrophil recruitment” value was found to be 86%. Also, in test [3] (setting [6]), the “inhibition of neutrophil recruitment” value is given as 85%. Further, in test [4], the “Tm (° C.) (mean ± sd)” value is reported as 73.2 ± 0.6 (n = 4) ° C and the “Tm difference (= (TNF + cpd) - (TNF + DMSO))” value is 11.8 °C.

For `Cc1ccc(C)c(Cn2c(C(O)c3ccncc3)nc3ccc(-c4cnn(C)c4)cc32)c1` (centres unmarked) [Compound 15], the “off-rate when complexed with h-TNFα” value in test [1] is “no measurable off-rate”. The “off-rate when complexed with m-TNFα” value in test [2] is reported as “no measurable off-rate”. In addition, in test [3], the “neutrophil recruitment vs TNFα in the absence of the compound” value is given as “not significantly different”. For the same molecule, the “inhibition of neutrophil recruitment” value in test [3] (setting [5]) is reported as 101%. Moreover, in test [3] (setting [6]), the “inhibition of neutrophil recruitment” value came to 102%. For the same molecule, in test [4], the “Tm (° C.) (mean ± sd)” value is 78.5 ± 1.1 (n = 4) ° C and the “Tm difference (= (TNF + cpd) - (TNF + DMSO))” value amounted to 17.1 °C.
